For the assay, the system named is HIV-1 (RF). The assay is described as follows: HIV RNA assay, microplate based compound evaluation in HIV-1 infected MT-2 cells. Particulars: Human immunodeficiency virus 1, MT2, 72 h; HIV-1 (RF) infected MT-2 cells, 3 days of culture; value used to standardize the virus inoculum; read-out: IC90 (concentration of compound required to reduce the HIV RNA level by 90%). It counts as cell-based. The protocol:
Plasmid pDAB 72 containing both gag and pol sequences of BH10 (bp 113-1816) cloned into PTZ 19R was prepared according to Erickson-Viitanen et al. AIDS Research and Human Retroviruses 1989, 5, 577. The plasmid was linearized with Bam HI prior to the generation of in vitro RNA transcripts using the Riboprobe Gemini system II kit (Promega) with T7 RNA polymerase. Synthesized RNA was purified by treatment with RNase free DNAse (Promega), phenol-chloroform extraction, and ethanol precipitation. RNA transcripts were dissolved in water, and stored at −70° C. The concentration of RNA was determined from the A260.
Biotinylated capture probes were purified by HPLC after synthesis on an Applied Biosystems (Foster City, Calif.) DNA synthesizer by addition of biotin to the 5′ terminal end of the oligonucleotide, using the biotin-phosphoramidite reagent of Cocuzza, Tet. Lett. 1989, 30, 6287. […]
MT-2 and MT-4 cells were maintained in RPMI 1640 supplemented with 5% fetal calf serum (FCS) for MT-2 cells or 10% FCS for MT-4 cells, 2 mM L-glutamine and 50 μg/mL gentamycin, all from Gibco. […] Infectious titers of HIV-1(RF) stocks were 1-3×10^7 PFU (plaque forming units)/mL as measured by plaque assay on MT-2 cells (see below). […]

≈ marks a conversion by molar mass, not a printed value.

For `Nc1ccn([C@H]2CC[C@@H](CO)O2)c(=O)n1` [ddC, dideoxycytidine], the IC90 amounted to 0.2 µg/mL (≈ 0.947 µM).

(Values after patent US6809109B2, “2, 4-disubstituted-pyridine N-oxides useful as HIV reverse transcriptase inhibitors” (Bristol-Myers Squibb Company, priority 2002, dated 2004).)
